# Literature values in US8455667B2, “Duloxetine compositions in the form of a powder for suspension in a liquid” (priority 2005, dated 2013).
# What was measured:
# [1] = system: dopaminergic receptors; conditions: in vitro
# [2] = system: adrenergic receptors; conditions: in vitro
# [3] = system: cholinergic receptors; conditions: in vitro
# [4] = system: histaminergic receptors; conditions: in vitro
# [5] = system: monoamine oxidase (MAO)
# [6] = in vivo
smiles,measurement,setting,value
"CNCC[C@H](Oc1cccc2ccccc12)c1cccs1 [Duloxetine, (S)-N-methyl-3-(1-naphthyloxy)-3-(2-thienyl) propan-1-amine]",affinity for dopaminergic receptors,[1],no significant affinity
same,affinity for adrenergic receptors,[2],no significant affinity
same,affinity for cholinergic receptors,[3],no significant affinity
same,affinity for histaminergic receptors,[4],no significant affinity
same,inhibition of monoamine oxidase (MAO),[5],does not inhibit
same,dosage hydrolyzed to 1-naphthol,"pH 1.0, within one hour",50%
same,dosage degraded to 1-Naphthol,"pH 2.0, in one hour",10%
same,time for 10% degradation,pH 4.0,up to 63 hours
same,mean plasma elimination half-life,[6],12.1 h
